Assay results taken from US20080312250A1, “Combination Comprising a Bcrp Inhibitor and 4- (4-Methylpiperazin-1-Ylmethyl)-N-[4-Methyl-3- (4-Pyridin-3-Yl) Pyrimidin-2-Ylamino) Phenyl] -Benzamide” (THE NETHERLANDS CANCER INSTITUTE, priority 2005, published 2008).

Key:
murine Bcrp1 = target: T1, murine Bcrp1 (Mus musculus, UniProt Q7TMS5); assay: Transport of Compound I across MDCKII-Bcrp1 monolayers; type: in vitro ADME
T1 construct: expressed in transfected cells; host or cells: MDCKII (Madin-Darby canine kidney strain II) cells, stably transfected
T1 sequence (Q7TMS5 1-657): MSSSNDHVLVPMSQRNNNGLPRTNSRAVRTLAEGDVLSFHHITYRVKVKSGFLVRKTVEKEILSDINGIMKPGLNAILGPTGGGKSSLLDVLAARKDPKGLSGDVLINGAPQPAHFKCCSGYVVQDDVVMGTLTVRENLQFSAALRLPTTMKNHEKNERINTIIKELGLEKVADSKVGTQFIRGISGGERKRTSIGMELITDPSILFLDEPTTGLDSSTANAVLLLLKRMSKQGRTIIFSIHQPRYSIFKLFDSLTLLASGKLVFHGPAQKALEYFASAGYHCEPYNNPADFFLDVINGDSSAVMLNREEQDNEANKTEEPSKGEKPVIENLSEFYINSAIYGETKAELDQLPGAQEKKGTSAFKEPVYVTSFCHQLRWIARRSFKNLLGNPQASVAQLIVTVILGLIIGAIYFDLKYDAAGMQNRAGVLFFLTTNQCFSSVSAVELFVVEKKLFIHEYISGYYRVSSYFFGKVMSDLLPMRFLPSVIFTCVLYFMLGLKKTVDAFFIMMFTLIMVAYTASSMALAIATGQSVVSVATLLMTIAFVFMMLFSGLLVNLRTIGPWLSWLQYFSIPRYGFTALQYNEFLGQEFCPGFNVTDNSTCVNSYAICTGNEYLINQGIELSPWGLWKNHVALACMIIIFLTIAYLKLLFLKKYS
Procedure: Transport across MDCKII monolayers. […] Animals.
Transport of Compound I across MDCKII monolayers. […] To exclude any contribution of P-gp (12), the P-gp inhibitor zosuquidar (5 μM) is added (18).

Bcrp1 = target: T2, Bcrp1 (Mus musculus, UniProt Q7TMS5); assay: Effect of pantoprazole and elacridar on Bcrp1-mediated transport of Compound I in MDCKII transfected cells; type: in vitro ADME, murine; settings: 1 μM Compound I, zosuquidar 5 μM added for pantoprazole, data not shown
T2 construct: expressed in transfected cells; host or cells: MDCKII (Madin-Darby canine kidney strain II) cells, stably transfected
T2 sequence (Q7TMS5 1-657): T1 sequence (Q7TMS5 1-657)
Procedure: Transport across MDCKII monolayers. The MDCKII (Madin-Darby canine kidney strain II) cells are cultured in Dulbecco's Modified Eagle's Medium supplemented with 10% fetal calf serum and 100 units penicillin/streptomycin per ml. Cells are grown at 37° C. with 5% CO2 under humidifying conditions. […] Animals. […] Mice are housed and handled according to institutional guidelines complying with Dutch legislation.
In the experiments in which the effect of pantoprazole is studied, the P-gp inhibitor zosuquidar (5 μM) is added to exclude any contribution of P-gp.

P-gp = settings: single dose of elacridar; approximately; cited from earlier work

For `Cc1ccc(NC(=O)c2ccc(CN3CCN(C)CC3)cc2)cc1Nc1nccc(-c2cccnc2)n1` [Compound I], the “net active transport of Compound I by Bcrp1” value (murine Bcrp1; 1 and 10 μM Compound I, MDCKII-Bcrp1 and parental cells, P-gp inhibitor zosuquidar 5 μM added) was “approximately 20 % per h” and the “concentration above which Bcrp1 transport of Compound I is saturable” value (murine Bcrp1; MDCKII-Bcrp1, zosuquidar 5 μM added) was “above 10 μM”.
For `COc1cc2c(cc1OC)CN(CCc1ccc(NC(=O)c3cccc4c(=O)c5cccc(OC)c5[nH]c34)cc1)CC2` [elacridar], the “effect on Bcrp1-mediated transport of Compound I” value (Bcrp1) is listed as “inhibit” and the P-gp inhibition (P-gp) is listed as 70-80%.
